By pIC50 is commonly meant the IC50 on a negative log10 scale, so that one unit is a factor of ten. Low values mean a large IC50, high ones a small IC50.

Molecules are shown by their SMILES. pIC50: −log10 of the molar value.

Test [1] has as its target T1, MAGL (Mus musculus (Mouse), UniProt O35678). Briefly: In vitro competitive activity-based protein profiling, MAGL (mouse). Format: biochemical. The note with it: for inhibition at 1 µM: read-out: MAGL % inh. 1 μM (mouse). A digest of the protocol: (§1)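 Competitive ABPP; proteome 1.0 mg/mL total protein; mouse = brain membranes or cell lysates, human = prefrontal cortex or cell membranes. Inhibitor preinc 30 min, 37° C; FP-Rh/HT-01 (50 μM DMSO stock) 30 min, 37° C; SDS-PAGE, in-gel fluorescence of MAGL/FAAH bands.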

The target of test [2] is T1, MAGL. Briefly: Mouse brain proteomes from inhibitor treated mice (oral gavage, 4 h), MAGL. The note with it: read-out: MAGL % inh. 5 mg/kg (mouse). In kind it is in vivo. On the procedure: Preparation of Mouse Brain Proteomes from Inhibitor Treated Mice.
Inhibitors were administered to wild-type C57Bl/6J by oral gavage in a vehicle of polyethylene glycol. Each animal was sacrificed 4 h following administration and brain proteomes were prepared and analyzed according to previously established methods (See Niphakis, M. J., et al. (2011) ACS Chem. Neurosci. and Long, J. Z., et al. Nat. Chem. Biol. 5:37-44).

The target of the next test is FAAH (Mus musculus (Mouse), UniProt O08914). Briefly: In vitro competitive activity-based protein profiling, FAAH (mouse). In kind it is biochemical. The note with it: for inhibition at 1 µM: read-out: FAAH % inh. 1 μM (mouse). The procedure, abridged: as §1
FAAH, sequence (O08914 whole entry): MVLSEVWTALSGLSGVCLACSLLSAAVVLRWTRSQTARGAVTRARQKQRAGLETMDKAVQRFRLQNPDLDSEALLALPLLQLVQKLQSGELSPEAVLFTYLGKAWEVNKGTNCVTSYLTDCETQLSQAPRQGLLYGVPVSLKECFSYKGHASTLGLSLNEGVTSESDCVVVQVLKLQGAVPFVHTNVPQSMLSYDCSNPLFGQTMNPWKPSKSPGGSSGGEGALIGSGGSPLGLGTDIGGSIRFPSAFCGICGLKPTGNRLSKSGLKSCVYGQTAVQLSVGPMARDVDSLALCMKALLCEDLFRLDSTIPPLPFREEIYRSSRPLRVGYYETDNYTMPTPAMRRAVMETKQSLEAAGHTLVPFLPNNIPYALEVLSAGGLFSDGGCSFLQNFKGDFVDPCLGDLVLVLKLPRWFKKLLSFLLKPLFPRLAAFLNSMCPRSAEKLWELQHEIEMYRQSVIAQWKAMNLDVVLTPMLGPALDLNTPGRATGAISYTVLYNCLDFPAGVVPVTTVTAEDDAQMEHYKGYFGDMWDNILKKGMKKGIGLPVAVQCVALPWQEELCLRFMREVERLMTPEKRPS

T1 sequence (O35678 whole entry): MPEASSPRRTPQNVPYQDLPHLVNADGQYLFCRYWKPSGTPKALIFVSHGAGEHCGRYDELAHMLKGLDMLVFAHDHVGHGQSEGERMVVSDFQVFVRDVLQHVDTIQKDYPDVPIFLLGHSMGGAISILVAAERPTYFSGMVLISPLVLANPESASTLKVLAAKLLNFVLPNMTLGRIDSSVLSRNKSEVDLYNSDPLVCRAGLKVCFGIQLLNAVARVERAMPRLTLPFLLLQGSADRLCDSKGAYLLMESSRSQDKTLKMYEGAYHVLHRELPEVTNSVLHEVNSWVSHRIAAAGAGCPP

With `CC(=O)N(C)c1cnn(C(=O)N2CC3CN(Cc4ccc(Oc5cncnc5)cc4Cl)CC3C2)c1` (stereo not drawn) [Example 274, N-(1-(5-(2-chloro-4-(pyrimidin-5-yloxy)benzyl)octahydropyrrolo[3,4-c]pyrrole-2-carbonyl)-1H-pyrazol-4-yl)-N-methylacetamide], at MAGL [1], the pIC50 was not below 7.00 and the inhibition at 1 µM is not below 75%. The inhibition at 5 mg/kg on MAGL [2] is 0 to 25%. At FAAH, the pIC50 is 6.00 to 7.00 and the inhibition at 1 µM was not below 75%.
With `CS(=O)(=O)Nc1cnn(C(=O)N2CCN(Cc3ccc(N4CCCC4)cc3C(F)(F)F)CC2)c1` [Example 292, N-(1-(4-(4-(pyrrolidin-1-yl)-2-(trifluoromethyl)benzyl)piperazine-1-carbonyl)-1H-pyrazol-4-yl)methanesulfonamide], at MAGL [1], the pIC50 was not below 7.00 and the inhibition at 1 µM fell in the range of 25 to 50%. Moreover, the inhibition at 5 mg/kg at MAGL [2] lay in the range of 50 to 75%. Moreover, at FAAH, the pIC50 was 5.00 to 6.00 and the inhibition at 1 µM was not below 75%.
The matching figures for `CS(=O)(=O)Nc1cnn(C(=O)N2CCC3(CCN(Cc4cc(Cl)cc(C(F)(F)F)c4)C3)CC2)c1` [Example 297, N-(1-(2-(3-chloro-5-(trifluoromethyl)benzyl)-2,8-diazaspiro[4.5]decane-8-carbonyl)-1H-pyrazol-4-yl)methanesulfonamide]: not below 7.00, not below 75%, not below 75%, not below 7.00 and not below 75%.
For `CC(=O)Nc1cnn(C(=O)N2CCC3(CCN(Cc4cc(Cl)cc(C(F)(F)F)c4)C3)CC2)c1` [Example 313, N-(1-(2-(3-chloro-5-(trifluoromethyl)benzyl)-2,8-diazaspiro[4.5]decane-8-carbonyl)-1H-pyrazol-4-yl)acetamide], the inhibition at 1 µM on MAGL [1] and on FAAH was not below 75% throughout. Further, the inhibition at 5 mg/kg on MAGL [2] is not below 75%.
